From PubChem BioAssay (NCI)
Values joined by “and” are separate entries in the source; they are usually repeats but may differ in a detail not shown here. Equal entries are not always repeated.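 Where inhibition never reached the appropriate level, the endpoint shown equals the highest concentration tested. Otherwise, values were interpolated linearly from a five-concentration, 48-hour dose response in 96-well plates. GI50 is the concentration that inhibits growth by half. TGI denotes the concentration required for complete inhibition of growth.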

How the values were obtained:
Assay in all cases: NCI-60 cell line screen, 48 h
786-0 renal = test system: 786-0 renal
COLO 205 colon = test system: COLO 205 colon
HCT-116 colon = test system: HCT-116 colon
KM12 colon = test system: KM12 colon
LOX IMVI melanoma = test system: LOX IMVI melanoma
SK-MEL-5 melanoma = test system: SK-MEL-5 melanoma
SK-OV-3 ovarian = test system: SK-OV-3 ovarian
SNB-75 CNS = test system: SNB-75 CNS
SR leukemia = test system: SR leukemia
UACC-62 melanoma = test system: UACC-62 melanoma

SMILES	GI50 (786-0 renal) [µM]	TGI (786-0 renal)	GI50 (COLO 205 colon) [µM]	TGI (COLO 205 colon)	GI50 (HCT-116 colon) [µM]	TGI (HCT-116 colon)	GI50 (KM12 colon) [µM]	TGI (KM12 colon)	GI50 (LOX IMVI melanoma) [µM]	TGI (LOX IMVI melanoma)	GI50 (SK-MEL-5 melanoma) [µM]	TGI (SK-MEL-5 melanoma)	GI50 (SK-OV-3 ovarian) [µM]	TGI (SK-OV-3 ovarian)	GI50 (SNB-75 CNS) [µM]	TGI (SNB-75 CNS) [µM]	GI50 (SR leukemia) [µM]	TGI (SR leukemia) [µM]	GI50 (UACC-62 melanoma) [µM]	TGI (UACC-62 melanoma)
O=C(NC1=CC(=O)c2ccccc2C1=O)c1ccccc1	3.01	17.2 µM	1.8	3.31 µM	0.409	1.6 µM	0.353	11.5 µM	1.08	2.63 µM	0.399	1.48 µM	3.06	14.3 µM	0.373	8.1	0.709	4.85	0.24	0.799 µM
O=C(O)C1OC(n2cc(F)c(=O)[nH]c2=O)CC1O (stereo not drawn)		> 100 µM		> 100 µM		> 100 µM		> 100 µM		> 100 µM		> 100 µM		> 100 µM		> 100		> 100		> 80.5 µM
CN1CCN(CCCOc2ccc3nc(Nc4ccc(Cl)c(C(F)(F)F)c4)ccc3c2)CC1	13.9	28.2 µM	9.79	24.4 µM	8.44	21.7 µM	9.51	23.4 µM	4.07	15.9 µM	15.1	29.1 µM	18.2	33 µM	7.09	20.5	2.7	10.7	16.4	31.7 µM
COc1cccc2c1C(=O)c1c(O)c3c(c(O)c1C2=O)C[C@@](O)(C(C)=O)C[C@@H]3OC1OC(C)C(O)C(N)C1Br (stereo partly drawn)	0.0178	0.62 µM and 0.168 µM	0.219	2.99 µM and 1.23 µM		0.147 µM and 0.188 µM	0.0797	0.426 µM and 0.453 µM		0.153 µM and 0.164 µM	0.0166	0.223 µM and 0.139 µM	0.0314	0.288 µM and 0.323 µM	0.151			0.0185	0.0459	0.892 µM and 0.424 µM
COc1ccc(Nc2c3ccccc3nc3occc23)cc1	5.83	> 51.5 µM	2		1.54	> 32.3 µM	0.274	5.43 µM	6.14	59.9 µM	1.32	13.4 µM	2.21	14.9 µM	9.4	> 100	> 100	> 100	0.342	
CS/C(N)=N\NC(=O)CCC(=O)Nc1ccccc1C(F)(F)F		> 100 µM		> 100 µM		> 100 µM		> 100 µM		> 100 µM		> 100 µM		> 100 µM		> 83.1		> 100		> 100 µM
O=C1OC(c2ccccc2)=N/C1=C\c1cccc2ccccc12		> 100 µM		> 100 µM		> 100 µM		> 100 µM		> 100 µM		> 100 µM		> 100 µM		> 100		> 100		> 100 µM
CC(C)n1nc(-c2cc3cc(O)ccc3[nH]2)c2c(N)ncnc21	0.294	2.88 µM	0.363	4.19 µM	0.634	14.4 µM	0.307	10.8 µM	0.309		0.171	1.43 µM	0.14	0.754 µM	0.0377	0.502	0.191	2.93	0.161	0.962 µM
COc1cc2ncnc(Nc3ccc(C)c(O)c3)c2cc1OC	11.4	> 25 µM	> 25	> 25 µM	> 25	> 25 µM	> 25	> 25 µM	10.3	> 25 µM	> 25	> 25 µM	1.32	> 19.9 µM	4.9	> 24	> 25	> 25	> 25	> 25 µM
COC(=O)C1=C(C)N(NC(=O)OC(C)(C)C)C(=O)C1=P(c1ccccc1)(c1ccccc1)c1ccccc1		> 100 µM		> 100 µM		> 100 µM		> 100 µM		> 100 µM		> 100 µM		> 100 µM		> 100		> 100		> 100 µM
Cc1cc(S(=O)(=O)Nc2nnc(-c3ccccc3)c(-c3ccccc3)n2)c(SCC(N)=O)cc1Cl	38.6	> 100 µM	> 100	> 100 µM	20.7	37.8 µM	37	> 100 µM	34.6	85.1 µM	57.8	> 100 µM	> 100	> 100 µM	> 100	> 100	24.1	47.6	24.6	56.2 µM
CC(C)(C)c1cc(C(C)(C)C)cc(S(=O)(=O)Nc2cc3ccccc3cc2C(=O)NCCN)c1	1.67	3.09 µM	1.82	3.37 µM	1.75	3.22 µM	1.79	3.37 µM	1.6	3.02 µM	1.75	3.13 µM	2.04	4.51 µM	1.58	4.16	1.9	4.43	1.82	3.4 µM
COc1cc(C=C2C(=O)NC(=O)NC2=O)cc(OC)c1OC		> 100 µM		> 100 µM		> 100 µM		> 100 µM		> 100 µM		> 100 µM		> 100 µM		> 100		> 100		> 100 µM
c1cc(CNC23CC4CC(CC(C4)C2)C3)cc(C[N+](Cc2cccc(CNC34CC5CC(CC(C5)C3)C4)c2)(Cc2cccc(CNC34CC5CC(CC(C5)C3)C4)c2)Cc2cccc(CNC34CC5CC(CC(C5)C3)C4)c2)c1 (stereo not drawn)	3.55	7.75 µM	4.57	13.1 µM	3.04	8.42 µM	6.92	28.2 µM	2.11	5.3 µM	6.36	26.3 µM	21.4	47.7 µM	9.78	40.7	6.22	209	4.86	15.4 µM
